Consider 8 compounds from ChEMBL document CHEMBL6109113, “Design, synthesis, and biological evaluation of novel PROTACs compounds with good ERα degradation ability” (Bioorg Med Chem, 2025).

Data set [1] addresses T1, Protein cereblon/Estrogen receptor (Homo sapiens, UniProt P03372+Q96SW2). Put plainly: Protac activity at CRBN/ER in human MCF7 cells assessed as induction of ER degradation at 1 uM measured after 24 hrs by Western blot analysis. The class given is cell-based. In general terms: Immunoblotting shows a protein as a band on a membrane.
Target sequence in this assay (P03372 whole entry, looked up): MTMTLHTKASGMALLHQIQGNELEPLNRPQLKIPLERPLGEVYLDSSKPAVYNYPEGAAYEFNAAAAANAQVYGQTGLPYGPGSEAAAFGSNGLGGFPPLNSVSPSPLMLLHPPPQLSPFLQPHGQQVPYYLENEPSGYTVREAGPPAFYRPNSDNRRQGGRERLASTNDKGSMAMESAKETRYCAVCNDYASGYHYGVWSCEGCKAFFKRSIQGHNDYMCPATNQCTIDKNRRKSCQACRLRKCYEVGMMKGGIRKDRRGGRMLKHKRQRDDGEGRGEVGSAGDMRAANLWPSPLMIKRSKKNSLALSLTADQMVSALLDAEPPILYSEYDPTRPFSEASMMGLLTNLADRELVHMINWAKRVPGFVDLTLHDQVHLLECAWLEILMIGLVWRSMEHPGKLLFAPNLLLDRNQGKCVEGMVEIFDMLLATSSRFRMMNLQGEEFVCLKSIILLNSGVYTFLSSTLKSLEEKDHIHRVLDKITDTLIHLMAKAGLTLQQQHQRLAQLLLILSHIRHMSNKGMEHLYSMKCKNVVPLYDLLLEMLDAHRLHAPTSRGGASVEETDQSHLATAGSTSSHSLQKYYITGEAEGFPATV
Target sequence in this assay (Q96SW2 whole entry, looked up): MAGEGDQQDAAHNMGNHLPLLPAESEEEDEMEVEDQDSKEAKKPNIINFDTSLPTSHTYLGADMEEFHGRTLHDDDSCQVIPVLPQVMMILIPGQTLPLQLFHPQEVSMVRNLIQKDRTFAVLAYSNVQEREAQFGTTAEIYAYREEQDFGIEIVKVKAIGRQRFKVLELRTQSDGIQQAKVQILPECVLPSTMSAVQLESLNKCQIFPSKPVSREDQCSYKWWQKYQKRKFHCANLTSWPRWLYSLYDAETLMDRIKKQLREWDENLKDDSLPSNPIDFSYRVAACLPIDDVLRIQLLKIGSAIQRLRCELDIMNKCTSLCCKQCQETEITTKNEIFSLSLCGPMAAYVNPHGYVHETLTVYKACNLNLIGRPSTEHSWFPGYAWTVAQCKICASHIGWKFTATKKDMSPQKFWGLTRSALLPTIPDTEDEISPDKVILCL
Data set [2] relates to MCF7. Put plainly: Antiproliferative activity against human MCF7 cells assessed as reduction in cell viability measured after 7 days by celltiter-glo luminescence assay. The class given is functional, cell-based. To be noted: for IC50: MCF7, 168 h; for Activity: time 7.0 day. Background: ATP-based viability assays read luminescence as a measure of living cells.
Data set [3] deals with MCF7. In words: Protac activity at VHL/ER in human MCF7 cells assessed as induction of ER degradation at 1 uM measured after 24 hrs by Western blot analysis. The class given is cell-based.
For data set [4], the target named is T1, Protein cereblon/Estrogen receptor. Put plainly: Protac activity at CRBN/ER in human MCF7 cells assessed as induction of ER degradation at 10 uM measured after 24 hrs by Western blot analysis. The data set is classed as cell-based.
Target sequence in this assay (P03372 whole entry, looked up): as the sequence (P03372 whole entry, looked up) above
Target sequence in this assay (Q96SW2 whole entry, looked up): as the sequence (Q96SW2 whole entry, looked up) above
The nature of data set [5]: Tmax in CD-1 mouse at 2 mg/kg, ip by LC-MS/MS analysis. The data set is classed as ADME, organism-based. To be noted: in vivo.
The nature of data set [6]: Cmax in CD-1 mouse at 2 mg/kg, ip by LC-MS/MS analysis. The class given is ADME, organism-based. To be noted: in vivo.
Data set [7] has as its target T1, Protein cereblon/Estrogen receptor. Put plainly: Protac activity at CRBN/ER in human MCF7 cells assessed as induction of ER degradation measured after 24 hrs by Western blot analysis. The data set is classed as cell-based.
A short description of data set [8]: Toxicity in CD-1 mouse assessed as adverse effect at 2 mg/kg, ip. The class given is organism-based. Conditions: in vivo.
Data set [9] is described as follows: Half life in CD-1 mouse at 2 mg/kg, ip by LC-MS/MS analysis. The data set is classed as ADME, organism-based. Conditions: in vivo.
Data set [10] can be described thus: Observed apparent […] clearance in CD-1 mouse at 2 mg/kg, ip by LC-MS/MS analysis. The class given is ADME, organism-based. Conditions: in vivo.

Activity calls are given as the source filed them. The rule behind the calls is not given here.

In the case of `COC(=O)c1ccc2c(c1)CCCC(c1ccc(Cl)cc1Cl)=C2c1ccc(N2CCC(CNCCOCCCOCCCOCCNC(=O)COc3ccc4c(c3)C(=O)N(C3CCC(=O)NC3=O)C4=O)CC2)cc1` (centres undefined), the result in data set [1] was Active.

What is called IC50 is the concentration that gives 50% inhibition. For `COC(=O)c1ccc2c(c1)CCCC(c1ccc(Cl)cc1Cl)=C2c1ccc(OC2CCN(CCCNC(=O)C3CCN(C4CCN(C(=O)CNc5cccc6c5CN(C5CCC(=O)NC5=O)C6=O)CC4)CC3)C2)cc1` (centres undefined), in the data set on MCF7 [2], the IC50 is 772 nM and the Activity entry is “Dose-dependent-effect”.

Consider `COC(=O)c1ccc2c(c1)CCCC(c1ccc(Cl)cc1Cl)=C2c1ccc(OC2CCN(CCCNC(=O)CN3CCN(C(=O)CNc4cccc5c4CN(C4CCC(=O)NC4=O)C5=O)CC3)C2)cc1` (centres undefined), for which, in the data set on MCF7 [2], the IC50 stood at 80.2 nM and the Activity result was “Dose-dependent-effect”.

`COC(=O)c1ccc2c(c1)CCCC(c1ccc(Cl)cc1Cl)=C2c1ccc(N2CCC(CN[C@H](C(=O)N3C[C@H](O)C[C@H]3C(=O)N[C@@H](C)c3ccc(-c4scnc4C)cc3)C(C)(C)C)CC2)cc1`: the Activity entry in the data set with MCF7 [3] is “Not active; Degradation Ability Was Poorer When Compared With Compounds Whose E3 Ligase Ligand Was Crbn”.

As to `Cc1ncsc1-c1ccc([C@H](C)NC(=O)[C@@H]2C[C@@H](O)CN2C(=O)[C@@H](NCC2CCN(c3ccc(C4=C(c5ccc(Cl)cc5Cl)CCCc5cc(C(=O)O)ccc54)cc3)CC2)C(C)(C)C)cc1`, the Activity result in the data set with MCF7 [3] was “Not active; Degradation Ability Was Poorer When Compared With Compounds Whose E3 Ligase Ligand Was Crbn”.

What is called Tmax is the time from dosing to the highest level. A word on the Cmax: it is the peak of the concentration-time curve. By DC50 is commonly meant the concentration at which degradation of the target reaches its halfway point. The half-life is how long it takes for the measured level to halve. Lower therefore signals rapid decline. For orientation: CL/F means clearance divided by bioavailability, as obtained after extravascular dosing. As for `COC(=O)c1ccc2c(c1)CCCC(c1ccc(Cl)cc1Cl)=C2c1ccc(N2CCN(CC3CCN(CC4CCN(C(=O)CNc5ccc6c(c5)C(=O)N(C5CCC(=O)NC5=O)C6)CC4)CC3)CC2)cc1` (centres undefined), the result in [4] was inactive. For the same compound, the Tmax in data set [5] turned out to be 0.83 h. In data set [6], this compound gave a Cmax of 677 ng/mL. For the same compound, the Activity entry in data set [7] is “Dose-dependent-effect”; in [8], “Non-toxic”; in the data set on MCF7 [2] it was “Dose-dependent-effect”. In addition, in [7], the DC50 amounted to 95 nM. Also, the IC50 in the data set on MCF7 [2] was 30.2 nM. The half-life in data set [9] was 11.2 h. The CL/F in data set [10] is 25.8 mL/min/kg. Further, the outcome in data set [1] was Active.

For `COC(=O)c1ccc2c(c1)CCCC(c1ccc(Cl)cc1Cl)=C2c1ccc(OC2CCN(CCCN[C@H](C(=O)N3C[C@H](O)C[C@H]3C(=O)N[C@@H](C)c3ccc(-c4scnc4C)cc3)C(C)(C)C)C2)cc1` (some centres undefined), the Activity entry with MCF7 [3] was “Not active; Degradation Ability Was Poorer When Compared With Compounds Whose E3 Ligase Ligand Was Crbn”.

In the case of `C[C@]12CC[C@@H]3c4ccc(O)cc4C[C@@H](CCCCCCCCC[S+]([O-])CCCC(F)(F)C(F)(F)F)[C@H]3[C@@H]1CC[C@@H]2O` (some centres undefined) [FULVESTRANT], the Tmax in data set [5] amounted to 0.83 h. This compound also had a Cmax in data set [6] of 237 ng/mL. Also, the IC50 in the data set with MCF7 [2] is under 0.5 nM. In [9], the half-life is 1.47 h. In [10], the CL/F was 45.8 mL/min/kg.
